We go through 1 sequence from patent EP1579851A2, “Rapid release encapsulated bioactive agents for inducing or potentiating an immune response and methods of use thereof” (CORIXA CORPORATION, priority 1997, dated 1999).

This experiment has as its system P815 cells. Nature of the experiment: In vivo CTL induction by P815-1 formulations (anti-P1A response), 51Cr release cytotoxicity assay. Also noted: species or system DBA/2 mice. The conditions noted are these: 30 µg peptide or equivalent, two weeks after a single immunization; restimulated with P815-2 pulsed splenocytes; Fig. 4a. As to the method: C57BL/6 mice were immunized subcutaneously with 15-30µg of soluble Ova or Ova encapsulated in microspheres (Ova/PLG). In the P1A system, DBA/2 mice were similarly immunized with P815-1 peptide alone or P815-1/PLG. PLG is defined herein as PLG1, which represents the polymeric composition of the single component system, or PLG2a-XX, which represents the polymeric composition of the blend component system. Antigens were suspended in 200 iL of PBS and injected on both flanks of the animal. As controls, mice were immunized with Ova admixed with alum as adjuvant. Fourteen to 21 days after the immunization, splenocytes were prepared as single cell suspensions and ~50'10^6 cells from each mouse were incubated with 2.5'10^6 irradiated (200,000 rad) EG7.Ova cells. […] After five days of culture, CTL activities were measured in a ^51Cr release cytotoxicity assay as described below.
To conduct a CTL assay, target cells were incubated with ^51Cr at 100 ìCi/10^6 cells at 37°C for 60 min. […] After 4 hours of incubation at 37°C, supernatant was collected from test wells using Skatron filter strips and counted on a Packard Cobra II a counter. Specific lysis was calculated as: % specific lysis =(Experimental release - Spontaneous release)/(Maximum release - Spontaneous release)X 100 [formula] […]

As to “KKKRYSLEEILPYLGWLVFAWTTSKKK [soluble P815-1 peptide, 28 amino acid peptide, residues 28-49 of the P1A antigen with 3 lysine residues added to both termini]”, the “CTL activity of splenocytes against P815 cells” value is on record as “Minimal CTL priming”.
